# Entries after “also recorded” stand apart in the source; their conditions may differ.
# Experiments:
# [1] = system: MDA-MB-231 cells; test: RNA seq gene expression profiling; assay type: cell-based; conditions: 96 hours
# Procedure: RNA samples were further processed for gene expression profiling using Illumina HiSeq 2000 following manufacturer's standard protocol (Illumina, San Diego, CA). Differential expression analysis was performed by using DEseq, and significant genes with at least 1.5-fold change with p<0.05 were chosen for analysis. Using all significant and differentially expressed genes from the RNA-seq data, Ingenuity Pathway Analysis software (IPA) was used to interpret the biological pathways. Total protein extracted from cell lines were subjected to western blot analysis.
# [2] = system: IL-12; conditions: Mukherjee et al., 2014; cited from earlier work
# [3] = system: MDA-MB-231 cells; test: transwell invasion assay; assay type: cell-based; conditions: MDA-MB-231, 20 μM for 48 hrs
# [4] = system: MDA-MB-231 cells; test: alamar Blue cell viability assay; assay type: cell-based; conditions: MDA-MB-231, imipramine 5-100 μM, 96 hours
# Procedure: (§1) The data shown are mean±SEM. *, P<0.05; **, P<0.01; ***, P<0.001; ****, P<0.0001 versus control group, t-test.
# (§2) Cell viability was assessed using alamar Blue cell viability assay.
# [5] = system: MDA-MB-468 cells; test: alamar Blue cell viability assay; assay type: cell-based; conditions: MDA-MB-468, imipramine 5-100 μM, 96 hours
# Procedure: as §1, §2
# [6] = system: IL-10; conditions: Mukherjee et al., 2014; cited from earlier work
# [7] = system: MDA-MB-231-GFP-luc cells implanted into the mammary fat pad; test: orthotopic xenograft study, imipramine and olaparib; assay type: in vivo, athymic nude mice; conditions: weeks 4 and 5; imipramine 40 mg/kg or olaparib 50 mg/kg body weight
# Procedure: To evaluate whether imipramine can sensitize the response to olaparib treatment, an orthotopic xenograft study was performed. […] Mice were treated for 4 weeks starting week 1 after tumor implantation. Tumor volumes were measured twice a week.
# [8] = system: MDA-MB-231 cells implanted into the mammary fat pad; conditions: 16 escalated to 20 or 32 escalated to 40 mg/kg body weight, ip daily for thirty days
# Procedure: MDA-MB-231 cells were implanted into the mammary fat pad of athymic nude mice. […] After the 30th day, the mice were euthanized, and the tumors were isolated and processed for molecular and immunohistologic studies. Tumor volume was calculated by using the formula 0.5236L1 (L2)^2, where L1 is long axis and L2 is the short axis of the tumor.
# [9] = system: MDA-MB-231 cells; test: transwell migration assay; assay type: cell-based; conditions: MDA-MB-231, 20 μM for 48 hrs
compound,measurement,setting,value
CN(C)CCCN1c2ccccc2CCc2ccccc21 [imipramine],"expression of cell cycle and DNA repair genes FOXM1, CyclinD1, PLK1, SKP2, XRCC3 and RAD51",[1],reduced expression
same,effect on levels of IL-12,[2],elevate
same,invasion of breast cancer cells compared with vehicle control,[3],reduction
same,viability of breast cancer cells compared to vehicle-treated cells,[4],significantly reduced viability
same,viability of breast cancer cells compared to vehicle-treated cells,[5],significantly reduced viability
same,effect on IL-10,[6],inhibit
same,"difference in tumor growth, control vs single agent",[7],significant difference
same,tumor growth (mean tumor volume) compared to vehicle control,[8],significantly reduced
same,tumor size compared to vehicle control,[8],significantly reduced
same,tumor weight compared to vehicle control,[8],reduced tumor weight in a dose dependent manner; also recorded: significantly reduced
same,migration of breast cancer cells compared with vehicle control,[9],reduction
O=C(c1cc(Cc2n[nH]c(=O)c3ccccc23)ccc1F)N1CCN(C(=O)C2CC2)CC1 [olaparib],"difference in tumor growth, control vs single agent",[7],significant difference
